Measurements published in patent publication US11180462B2, “Microbiocidal oxadiazole derivatives” (SYNGENTA PARTICIPATIONS AG, priority 2015, dated 2021).

Assays:
[1] = test system: Glomerella lagenarium (Colletotrichum lagenarium); test: Fungicidal activity against Glomerella lagenarium (Colletotrichum lagenarium) liquid culture / cucumber / preventative (anthracnose); assay type: cell-based; details: Colletotrichum orbiculare; 20 ppm in the applied formulation; liquid culture (PDB), growth inhibition measured photometrically after 3 to 4 days; compared to untreated control; read-out: disease control
Method in brief: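 Percent activity against the untreated check was derived from photometric growth measurements made 2 to 7 days after conidia in potato dextrose broth were combined with compound at 20 ppm. Cultures were kept dark at 24 °C and 96% humidity.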

[2] = test system: Puccinia recondita f. Sp. Tritici; test: Fungicidal activity against Puccinia recondita f. sp. tritici / wheat / leaf disc preventative (brown rust); assay type: in vivo; details: foliar, 200 ppm in the applied formulation, wheat leaf segments, preventative, compared to untreated control leaf disks, read-out: disease control
Method in brief: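 200 ppm spray on wheat cv. Kanzler leaf segments; spore inoculation +1 day; 19° C., 75% rh, 12 h/12 h light cycle; single rating of % control vs untreated at 7 to 9 days.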

[3] = test system: Puccinia recondita f. Sp. Tritici; test: Fungicidal activity against Puccinia recondita f. sp. tritici / wheat / leaf disc curative (brown rust); assay type: in vivo; details: foliar, 24 h, 200 ppm in the applied formulation, wheat leaf segments, curative (applied 1 day after inoculation), compared to untreated control leaf disks, read-out: disease control
Method in brief: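 Curative leaf-segment test: compound diluted in water applied 1 day after spore inoculation of cv. Kanzler wheat segments on agar. Conditions 19° C, 75% RH, 12 h/12 h light cycle. Read-out: % disease control relative to untreated check, 6 to 8 days after application.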

Phakopsora Pachyrhizi = test: Fungicidal activity against Phakopsora pachyrhizi / soybean / leaf disc preventative (Asian soybean rust); assay type: in vivo; details: foliar, 200 ppm in the applied formulation, soybean leaf disks, compared to untreated control leaf disks, read-out: disease control
Method in brief: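 Scored 12 to 14 days post-application as percent control relative to untreated check discs, rust spores were sprayed under the disc one day after compound treatment. Incubation: 20°C, 75% rh, first 24–36 h in darkness, then 12 h daily light; discs kept on water agar.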

| melting point [°C] | Compound | inhibition of growth at 20 ppm [1] [%] | pest or weed control at 200 ppm [2] [%] | pest or weed control at 200 ppm [3] [%] | pest or weed control at 200 ppm (Phakopsora Pachyrhizi) [%] |
| --- | --- | --- | --- | --- | --- |
| 185.5 to 188.5 | CON(Cc1ccc(-c2noc(C(F)(F)F)n2)cc1)C(=O)C1CCCN1.Cl (stereo not drawn) | – | – | – | – |
| 80 to 89 | CON(Cc1ccc(-c2noc(C(F)(F)F)n2)cn1)C(=O)c1ccccc1Cl [Compound 1.572, 2-chloro-N-methoxy-N-[[5-[5-(trifluoromethyl)-1,2,4-oxadiazol-3-yl]-2-pyridyl]methyl]-benzamide] | ≥ 80 | ≥ 80 | – | – |
| 54 to 60 | CN(Cc1ccc(-c2noc(C(F)(F)F)n2)cc1)C(=O)CO [Compound 1.593, 2-hydroxy-N-methyl-N-[[4-[5-(trifluoromethyl)-1,2,4-oxadiazol-3-yl]phenyl]methyl]-acetamide] | ≥ 80 | ≥ 80 | ≥ 80 | – |
| 80 to 83.1 | CON(Cc1ccc(-c2noc(C(F)(F)F)n2)cc1)C(=O)CNC(=O)OC(C)(C)C [Compound 1.787, tert-butyl N-[2-(methoxy-[[4-[5-(trifluoromethyl)-1,2,4-oxadiazol-3-yl]phenyl]methyl]-amino]-2-oxo-ethyl]carbamate] | ≥ 80 | ≥ 80 | ≥ 80 | – |
| 135.9 to 138.5 | CON(Cc1ccc(-c2noc(C(F)(F)F)n2)cc1)C(=O)CNC(=O)C1CC1 [Compound 1.790, N-[2-[methoxy-[[4-[5-(trifluoro-methyl)-1,2,4-oxadiazol-3-yl]phenyl]methyl]-amino]-2-oxo-ethyl]-cyclopropane-carboxamide] | ≥ 80 | ≥ 80 | ≥ 80 | – |
| 200.7 to 203.2 | CON(Cc1ccc(-c2noc(C(F)(F)F)n2)cc1)C(=O)C(C)N.Cl (stereo not drawn) [Compound 1.792, [2-[methoxy-[[4-[5-(trifluoromethyl)-1,2,4-oxadiazol-3-yl]phenyl]methyl]-amino]-1-methyl-2-oxo-ethyl]ammonium; chloride] | – | ≥ 80 | ≥ 80 | – |
| 121.7 to 123.9 | CCC(=O)NC(C)C(=O)N(Cc1ccc(-c2noc(C(F)(F)F)n2)cc1)OC (stereo not drawn) [Compound 1.797, N-methoxy-2-(propanoylamino)-N-[[4-[5-(trifluoromethyl)-1,2,4-oxadiazol-3-yl]phenyl]methyl]-propanamide] | – | – | – | – |
| 129.7 to 134 | CON(Cc1ccc(-c2noc(C(F)(F)F)n2)cc1)C(=O)C(C)NC(=O)C1CC1 (stereo not drawn) [Compound 1.798, N-[2-(methoxy-[[4-[5-(trifluoromethyl)-1,2,4-oxadiazol-3-yl]phenyl]methyl]-amino]-1-methyl-2-oxo-ethyl]-cyclopropane-carboxamide] | – | – | – | – |
| 98.5 to 100.6 | CCC(=O)NC(C(=O)N(Cc1ccc(-c2noc(C(F)(F)F)n2)cc1)OC)C(C)C (stereo not drawn) [Compound 1.802, N-methoxy-3-methyl-2-(propanoylamino)-N-[[4-[5-(trifluoromethyl)-1,2,4-oxadiazol-3-yl]phenyl]methyl]-butanamide] | – | – | – | – |
| 148.2 to 150.6 | CCC(=O)N1CCCC1C(=O)N(Cc1ccc(-c2noc(C(F)(F)F)n2)cc1)OC (stereo not drawn) [Compound 1.803, N-methoxy-1-propanoyl-N-[[4-[5-(trifluoromethyl)-1,2,4-oxadiazol-3-yl]phenyl]methyl]-pyrrolidine-2-carboxamide] | – | – | – | – |
| 93.9 to 96.8 | CON(Cc1ccc(-c2noc(C(F)(F)F)n2)cc1)C(=O)C1CCCN1C(C)=O (stereo not drawn) [Compound 1.805, 1-acetyl-N-methoxy-N-[[4-[5-(trifluoromethyl)-1,2,4-oxadiazol-3-yl]phenyl]methyl]-pyrrolidine-2-carboxamide] | – | – | – | – |
| 81.2 to 84.9 | CON(Cc1ccc(-c2noc(C(F)(F)F)n2)cc1)C(=O)CBr [Compound 1.806, 2-bromo-N-methoxy-N-[[4-[5-(trifluoromethyl)-1,2,4-oxadiazol-3-yl]phenyl]methyl]-acetamide] | – | – | – | – |
| 79.1 to 80.4 | CCOC(=O)c1cnn(CC(=O)N(Cc2ccc(-c3noc(C(F)(F)F)n3)cc2)OC)c1 [Compound 1.807, ethyl 1-[2-[methoxy-[[4-[5-(trifluoromethyl)-1,2,4-oxadiazol-3-yl]phenyl]methyl]-amino]-2-oxo-ethyl]pyrazole-4-carboxylate] | – | – | – | – |
| 125.1 to 127.2 | CON(Cc1ccc(-c2noc(C(F)(F)F)n2)cc1)C(=O)Cn1cncn1 [Compound 1.808, N-methoxy-2-(1,2,4-triazol-1-yl)-N-[[4-[5-(trifluoromethyl)-1,2,4-oxadiazol-3-yl]phenyl]methyl]-acetamide] | – | – | – | – |
| 113 to 114 | CNC(=O)N(Cc1ccc(-c2noc(C(F)(F)F)n2)cc1)C1CC1 [Compound 3.35, 1-cyclopropyl-3-methyl-1-[[4-[5-(trifluoromethyl)-1,2,4-oxadiazol-3-yl]phenyl]methyl]urea] | ≥ 80 | ≥ 80 | – | – |
| – | CON(Cc1ccc(-c2noc(C(F)(F)F)n2)cc1)C(=O)NCC1(C#N)CC1 [Compound 3.40, 3-[(1-cyanocyclopropyl)-methyl]-1-methoxy-1-[[4-[5-(trifluoromethyl)-1,2,4-oxadiazol-3-yl]phenyl]methyl]urea] | ≥ 80 | ≥ 80 | ≥ 80 | ≥ 80 |
| – | CNC(=O)N(Cc1ccc(-c2noc(C(F)(F)F)n2)c(F)c1)OC [Compound 3.44, 1-[[3-fluoro-4-[5-(trifluoromethyl)-1,2,4-oxadiazol-3-yl]phenyl]methyl]-1-methoxy-3-methyl-urea] | ≥ 80 | ≥ 80 | ≥ 80 | ≥ 80 |
| 126 to 130 | CNC(=O)CNC(=O)N(Cc1ccc(-c2noc(C(F)(F)F)n2)cc1)OC [Compound 3.50, 2-[[methoxy-[[4-[5-(trifluoromethyl)-1,2,4-oxadiazol-3-yl]phenyl]methyl]-carbamoyl]amino]-N-methyl-acetamide] | – | ≥ 80 | ≥ 80 | – |
| – | CCN(Cc1ccc(-c2noc(C(F)(F)F)n2)cc1)C(=O)NC [Compound 3.52, 1-ethyl-3-methyl-1-[[4-[5-(trifluoromethyl)-1,2,4-oxadiazol-3-yl]phenyl]methyl]urea] | ≥ 80 | ≥ 80 | ≥ 80 | ≥ 80 |
| – | CCN(Cc1ccc(-c2noc(C(F)(F)F)n2)cc1)C(=O)NC1CC1 [Compound 3.53, 3-cyclopropyl-1-ethyl-1-[[4-[5-(trifluoromethyl)-1,2,4-oxadiazol-3-yl]phenyl]methyl]urea] | ≥ 80 | ≥ 80 | ≥ 80 | ≥ 80 |
| – | CON(Cc1ccc(-c2noc(C(F)(F)F)n2)cc1)C(=O)N(C)CC#N [Compound 3.57, 1-(cyanomethyl)-3-methoxy-1-methyl-3-[[4-[5-(trifluoromethyl)-1,2,4-oxadiazol-3-yl]phenyl]methyl]urea] | ≥ 80 | ≥ 80 | ≥ 80 | ≥ 80 |
| – | CON(Cc1ccc(-c2noc(C(F)(F)F)n2)cc1)C(=O)N(C)C1CC1 [Compound 3.58, 1-cyclopropyl-3-methoxy-1-methyl-3-[[4-[5-(trifluoromethyl)-1,2,4-oxadiazol-3-yl]phenyl]methyl]urea] | ≥ 80 | ≥ 80 | ≥ 80 | ≥ 80 |
| – | CON(Cc1ccc(-c2noc(C(F)(F)F)n2)cc1)C(=O)N(C)C1COC1 [Compound 3.59, 1-methoxy-3-methyl-3-(oxetan-3-yl)-1-[[4-[5-(trifluoromethyl)-1,2,4-oxadiazol-3-yl]phenyl]methyl]urea] | ≥ 80 | ≥ 80 | ≥ 80 | ≥ 80 |
| – | CON(Cc1ccc(-c2noc(C(F)(F)F)n2)cc1)C(=O)N1CCCC1 [Compound 3.60, N-methoxy-N-[[4-[5-(trifluoromethyl)-1,2,4-oxadiazol-3-yl]phenyl]methyl]-pyrrolidine-1-carboxamide] | ≥ 80 | ≥ 80 | ≥ 80 | ≥ 80 |
| – | C#CCN(C)C(=O)N(Cc1ccc(-c2noc(C(F)(F)F)n2)cc1)OC [Compound 3.61, 1-methoxy-3-methyl-3-prop-2-ynyl-1-[[4-[5-(trifluoromethyl)-1,2,4-oxadiazol-3-yl]phenyl]methyl]urea] | ≥ 80 | ≥ 80 | ≥ 80 | ≥ 80 |
